Experimental data taken from patent US12195460B2, “Pyrido-[3,4-d]pyridazine amine derivatives useful as NLRP3 inhibitors” (Ventus Therapeutics U.S., Inc., priority 2022, dated 2025).

Assay: Brain levels (Kp and Kpu,u) in mice after oral administration
Assay type: in vivo, CDI mice
Conditions: 20 mpk PO; for kpu, u: kp corrected with mouse plasma protein binding and mouse brain homogenate binding; for Kp at 24 h: CDI, mouse, 20 mg/kg, whole brain AUC over 24 h divided by plasma AUC
Experimental: Brain Levels (Kp and Kpu,u)—NLRP3
The in vivo total brain to plasma ratio was assessed in CDI mice after oral administration of the compound. Blood was collected at several timepoints up to 24 h, and transferred into plastic micro centrifuge tubes with EDTA-K2 as anticoagulant. Blood samples were centrifuged at 4000 g for 5 minutes at 4° C. to obtain plasma, then immediately frozen and stored at −75±15° C. prior to analysis. Animals were terminally anaesthetized with a rising concentration of CO2 gas at about 1 minute. At selected timepoints, whole brains were removed from the skull, rinsed in cold PBS to remove blood, dried with clean gauze, then frozen in liquid nitrogen and kept at −75±15° C. before analysis. At the time of analysis, brain samples were homogenized with PBS by tissue weight (g) to PBS volume (mL) ratio 1:3. Plasma and brain drug levels were quantified by LC/MS/MS on a AB Sciex Triple Quad 5500+ instrument, after separation on a HALO 160A ES-C18, 2.7 μm 2.1×50 mm column. Quantitation was performed using a calibration curve prepared in blank plasma or blank brain homogenate. The software WinNonlin (Phoenix™) was used for pharmacokinetic analysis from the concentrations versus time data, including the AUCinf and AUClast. The Kp ratio (total brain concentration over total plasma concentration) was calculated as (AUCtot,hr)/(AUCtot,pl).
The unbound brain exposure was assessed as Kpuu, which is the free brain/free plasma concentration ratio (Cu,hr/Cu,pl). The Cu,bt/Cu,pl ratios were obtained from in vivo total brain to plasma ratios (Ctot,br/Ctot,pl) by using in vitro determined Fu,br and Fu,pl.
Plasma protein binding and brain homogenate protein binding were measured by equilibrium dialysis in a HTDialysis plate. The dialysis membranes were soaked in ultrapure water for 60 minutes to separate strips, then in 20% ethanol for 20 minutes, finally in dialysis buffer for 20 minutes. The dialysis set up was assembled according to the manufacturer's instruction. Each cell received 150 μL of plasma or brain homogenate spiked with 1 μM of compound, and dialyzed against an equal volume of dialysis buffer (PBS). The dialysis plate was sealed and incubated in an incubator at 37° C. with 5% CO2 at 100 rpm for 6 hours. At the end of incubation, compound concentration was measured in both chambers by LC-MS/MS on a Triple Quad™ 5500 from AB Inc after separation on a XSelect Hss T3 2.5μ (2.1×30 mm) column. Free fraction (Fu) was calculated as (Peak Area Ratio buffer chamber/Peak Area Ratio plasma chamber).
Finally, Kpuu was calculated as (AUCtot,br×Fu,bt)/(AUCtot,pl×Fu,pl).
Table 3 assigns each compound a code for kp and kpu,u values: A or B. According to the code, A represents a value of >0.3 and B represents a value of <0.3. […] The kpu,u was then calculated upon correcting this kp value with mouse plasma protein binding and mouse brain homogenates binding.

SMILES	kpu, u	Kp at 24 h
OCC1(CNc2nnc(-c3ccc(Cl)cc3O)c3ccncc23)CC1 [Compound 8, 5-chloro-2-(4-(((1-(hydroxymethyl)cyclopropyl)methyl)amino)pyrido[3,4-d]pyridazin-1-yl)phenol, reference compound]	B (B represents a value of <0.3)	< 0.3
CN1CCO[C@@H](CNc2nnc(-c3ccc(C(F)(F)F)cc3O)c3ccncc23)C1 [Compound 6, (S)-2-(4-(((4-methylmorpholin-2-yl)methyl)amino)pyrido[3,4-d]pyridazin-1-yl)-5-(trifluoromethyl)phenol]	A (A represents a value of >0.3)	
[2H]C([2H])([2H])OC(C)(C)CNc1nnc(-c2ccc(C(F)F)cc2O)c2ccncc12 [Compound 2, 5-(difluoromethyl)-2-(4-((2-(methoxy-d3)-2-methylpropyl)amino)pyrido[3,4-d]pyridazin-1-yl)phenol]	A (A represents a value of >0.3)	> 0.3
Oc1cc(Cl)ccc1-c1nnc(N[C@H]2CCOC2)c2cnccc12 [Compound 7, (S)-5-chloro-2-(4-((tetrahydrofuran-3-yl)amino)pyrido[3,4-d]pyridazin-1-yl)phenol, reference compound]	B (B represents a value of <0.3)	
CC1(C)C[C@@H](Nc2nnc(-c3ccc(Cl)cc3O)c3ccncc23)CCO1 [Compound 4, (S)-5-chloro-2-(4-((2,2-dimethyltetrahydro-2H-pyran-4-yl)amino)pyrido[3,4-d]pyridazin-1-yl)phenol]	A (A represents a value of >0.3)	
Cc1ccc(-c2nnc(N[C@H]3COC(C)(C)C3)c3cnccc23)c(O)c1 [Compound 5, (R)-2-(4-((5,5-dimethyltetrahydrofuran-3-yl)amino)pyrido[3,4-d]pyridazin-1-yl)-5-methylphenol]	A (A represents a value of >0.3)	> 0.3
CC1(C)COC[C@@H]1Nc1nnc(-c2ccc(Cl)cc2O)c2ccncc12 [Compound 1, (R)-5-chloro-2-(4-((4,4-dimethyltetrahydrofuran-3-yl)amino)pyrido[3,4-d]pyridazin-1-yl)phenol]	A (A represents a value of >0.3)	
CC1(C)COCC[C@H]1Nc1nnc(-c2ccc(Cl)cc2O)c2ccncc12 [Compound 3, (R)-5-chloro-2-(4-((3,3-dimethyltetrahydro-2H-pyran-4-yl)amino)pyrido[3,4-d]pyridazin-1-yl)phenol]	A (A represents a value of >0.3)	> 0.3
